The source of these data is US6794492B2, “Perfluoroalkyl compounds and their methods of use and manufacture” (Clemson University, priority 2000, dated 2004).

One test relates to lung tumor cell line. Put plainly: NCI in vitro anti-tumor screen, three-cell line evaluation (SRB protein assay), lung. Particulars: sample concentration 5.00 E-05 Molar, 48 hour continuous drug exposure. It is filed as cell-based, human. How it is done:
The testing below was conducted by the United States Public Health Service, Department of Health and Human Services. The National Cancer Institute (NCl) in vitro anti-tumor screening test consists of about 60 human tumor cell lines against which compounds are tested at a minimum of 5 concentrations at 10 fold dilutions. A 48 hour continuous drug exposure protocol is used, and a sulforhodamine B (SRB) protein assay is used to estimate cell viability or growth.
(§1) Data for the compound shown in the attached FIG. 3 which was tested according to the National Cancer Institutes Developmental Theraputics Program (dose response curves) is shown in attached FIG. 13.

The subject of the next test is breast tumor cell line. The test is described as follows: NCI in vitro anti-tumor screen, three-cell line evaluation (SRB protein assay), breast. Particulars: sample concentration 5.00 E-05 Molar, 48 hour continuous drug exposure. The format is cell-based, human. Here is the method: The testing below was conducted by the United States Public Health Service, Department of Health and Human Services. […] A 48 hour continuous drug exposure protocol is used, and a sulforhodamine B (SRB) protein assay is used to estimate cell viability or growth.
as §1

The test system of another test is human tumor cell lines. Put plainly: NCI three-cell line evaluation, overall activity call. The format is cell-based. The following applies: three-cell line (lung, breast, CNS); 5.00 E-05 Molar.
The test system of a further test is CNS tumor cell line. The test is described as follows: NCI in vitro anti-tumor screen, three-cell line evaluation (SRB protein assay), CNS. It is filed as cell-based, human. Particulars: sample concentration 5.00 E-05 Molar, 48 hour continuous drug exposure.

For `CC[C@H](C)[C@H](NC(=O)[C@H](Cc1ccc(O)cc1)NCC(F)(F)F)C(=O)OC(C)(C)C` [S712619], the “Growth Percentages lung” value in the test with lung tumor cell line was −77%. Besides, in the test on breast tumor cell line, the “Growth Percentages breast” value is listed as −57%. In addition, the result in the test on human tumor cell lines was active. In addition, the “Growth Percentages CNS” value with CNS tumor cell line is reported as −75%.
